{
  "source": "patent US20110135768A1",
  "about": "“DIHYDRO-ISOALPHA ACID AND ACACIA NILOTICA EXTRACT BASED COMPOSITIONS AND METHODS FOR WEIGHT MANAGEMENT” (Metaproteomics, LLC, priority 2009, published 2011)",
  "origin": "cited, not measured here",
  "conditions": "rats, intra-cerebroventricular administration",
  "note": "Ends that are not written are not given here.",
  "data": [
    {"substance": "GLP-1: glucagon-like peptide-1, a 30 amino acid peptide derived from proglucagon gene (HAEGTFTSDVSSYLEGQAAKEFIAWLVKGR; ends and bridges not checked; UniProt P01275 98-127, looked up)", "values": [
      {"measurement": "body weight", "result": "reduce"},
      {"measurement": "eating", "result": "inhibit"}
    ]}
  ]
}
